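Five concentrations, 48 hours, 96-well plates. Here, GI50 denotes the concentration required for 50% inhibition of growth. TGI: total growth inhibition.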

Among the test systems are A498 renal; HCC-2998 colon; SK-MEL-28 melanoma; UO-31 renal; HL-60(TB) leukemia; HCT-116 colon; EKVX NSCLC; MCF7 breast; RPMI-8226 leukemia.
What all share (test): NCI tumour cell line growth inhibition, 48 h

`COC(=O)C12C3C4C1C1C2C3C41C(=O)N(C(C)C)C(C)C` (stereo not drawn): the TGI with A498 renal, in the assay on HCC-2998 colon, in the assay on SK-MEL-28 melanoma, in the assay with UO-31 renal, in the assay on HL-60(TB) leukemia and in the assay on HCT-116 colon was greater than 100 µM in each case. This molecule had a TGI with EKVX NSCLC greater than 100 µM.
Turning to `Cc1cc(S(=O)(=O)Nc2nc3cc(-c4ccsc4)sc3c(=O)n2N)c(S)cc1Cl`, the GI50 with MCF7 breast was 46.9 µM; in the assay on HCC-2998 colon, 48.4 µM; with UO-31 renal it was greater than 100 µM; in the assay on RPMI-8226 leukemia, greater than 100 µM; in the assay on HL-60(TB) leukemia, greater than 100 µM; with HCT-116 colon, 47.4 µM. Also, the GI50 in the assay on EKVX NSCLC is greater than 100 µM. The TGI with MCF7 breast, in the assay with HCC-2998 colon, in the assay on UO-31 renal, with RPMI-8226 leukemia, with HL-60(TB) leukemia and in the assay with HCT-116 colon was greater than 100 µM each time. The TGI with EKVX NSCLC was greater than 100 µM.
For `[N-]=[N+]=Nc1c(Br)c(=O)[nH]c(=O)n1COCCO`, the TGI in the assay with HCC-2998 colon, with SK-MEL-28 melanoma, in the assay with UO-31 renal, with HL-60(TB) leukemia and in the assay with HCT-116 colon was greater than 100 µM each time.
For `O=C1C2=C(c3ccccc31)C(c1ccc(F)cc1)N1C(=O)CCSC1=N2` (stereo not drawn), the TGI in the assay on A498 renal, in the assay with HCC-2998 colon, in the assay with SK-MEL-28 melanoma, with UO-31 renal, in the assay on RPMI-8226 leukemia and with HL-60(TB) leukemia was greater than 100 µM throughout. In addition, the TGI in the assay on HCT-116 colon and in the assay on EKVX NSCLC was greater than 100 µM in each case.
As to `COC(=O)/C(=N/O)C(C(=O)OC)C(=O)C(=O)Nc1c(Cl)cc(C)cc1S(=O)(=O)O` (stereo not drawn), the TGI in the assay with A498 renal was greater than 100 µM; in the assay on HCC-2998 colon, greater than 100 µM; in the assay on SK-MEL-28 melanoma it was greater than 100 µM; in the assay with UO-31 renal, greater than 100 µM; in the assay with RPMI-8226 leukemia, 53.3 µM; in the assay with HL-60(TB) leukemia, greater than 100 µM. Also, the TGI with HCT-116 colon and with EKVX NSCLC was greater than 100 µM each time.
With `O=C(O)Cc1cc(=O)[nH]c2c1C(=O)CCC2`, the TGI in the assay with HCC-2998 colon, in the assay with SK-MEL-28 melanoma, in the assay with UO-31 renal, with RPMI-8226 leukemia, in the assay on HL-60(TB) leukemia and in the assay with EKVX NSCLC was greater than 100 µM in each case.
For `O=C1C2=C(c3ccccc31)C(c1ccc(Cl)cc1)NC(=S)N2` (stereo not drawn), the TGI was greater than 100 µM in the assay on A498 renal; 34.1 µM in the assay with SK-MEL-28 melanoma; 35 µM in the assay on UO-31 renal; 52.8 µM with RPMI-8226 leukemia; 37.8 µM in the assay on HL-60(TB) leukemia; 28.3 µM with HCT-116 colon. Besides, the TGI with EKVX NSCLC was greater than 100 µM.
With `Cc1cc(Cl)ccc1NC(=O)CCCC(=O)C(C(=O)c1ccccc1)c1ccccc1` (stereo not drawn), the TGI with A498 renal, with HCC-2998 colon, with RPMI-8226 leukemia and in the assay with HL-60(TB) leukemia was greater than 100 µM throughout.
Consider `CC(=O)O[C@H]1C(=O)[C@@]2(C)C(C(OC(=O)c3ccccc3)[C@]3(O)CC(OC(=O)C(O)C(NC(=O)c4ccccc4)c4ccc(C)cc4)C(C)=C1C3(C)C)[C@]1(OC(C)=O)CO[C@@H]1C[C@@H]2O` (stereo partly drawn), for which the TGI in the assay with A498 renal is greater than 25 µM; in the assay with UO-31 renal, 11.5 µM; in the assay on RPMI-8226 leukemia, 7.56 µM; in the assay on HL-60(TB) leukemia it was 2.55 µM; in the assay with HCT-116 colon, 4.75 µM; with EKVX NSCLC it was greater than 25 µM.
Turning to `COc1cc2c3c(c1OC)Oc1ccc(cc1)CC1c4c(cc(OC)c(OC)c4Oc4ccc(cc4)CC3N(C)CC2)CCN1C` (stereo not drawn), the TGI in the assay on A498 renal was found to be 34 µM; in the assay on HCC-2998 colon, 28 µM; in the assay with SK-MEL-28 melanoma, 34.2 µM; with UO-31 renal it was 31.4 µM; with RPMI-8226 leukemia it was 70.4 µM; in the assay on HL-60(TB) leukemia, 34.1 µM. The values for the TGI with HCT-116 colon and in the assay on EKVX NSCLC were 27.2 µM and greater than 100 µM, respectively.
For the molecule `C[C@H]1CCC/C=C/[C@@H]2C[C@H](O)C[C@H]2[C@H](O)[C@@H](SC2OC(CO)C(O)C(O)C2O)CC(=O)O1` (stereo partly drawn), the GI50 with A498 renal is 20.7 µM; in the assay with MCF7 breast it was 35.1 µM; with HCC-2998 colon, greater than 100 µM; in the assay on SK-MEL-28 melanoma, 74.3 µM; with UO-31 renal, 47.9 µM; in the assay with RPMI-8226 leukemia, greater than 100 µM. In addition, the GI50 with HL-60(TB) leukemia, in the assay with HCT-116 colon and with EKVX NSCLC was greater than 100 µM in each case. The TGI in the assay with A498 renal was 63.8 µM; in the assay with MCF7 breast it was greater than 100 µM; in the assay with HCC-2998 colon, greater than 100 µM; in the assay with SK-MEL-28 melanoma, greater than 100 µM; with UO-31 renal, greater than 100 µM; with RPMI-8226 leukemia, greater than 100 µM. Also, the TGI in the assay on HL-60(TB) leukemia, in the assay with HCT-116 colon and with EKVX NSCLC was greater than 100 µM in each case.
As to `CCOC(=O)NC(=O)c1cn(C2OC(CO)C(O)C2O)c(=O)[nH]c1=O` (stereo not drawn), the TGI with A498 renal, in the assay on HCC-2998 colon, in the assay with SK-MEL-28 melanoma, in the assay with UO-31 renal, in the assay on RPMI-8226 leukemia and in the assay on HL-60(TB) leukemia was greater than 100 µM in each case. Also, the TGI in the assay with HCT-116 colon and in the assay on EKVX NSCLC was greater than 100 µM throughout.
Consider `COC(=O)c1nn(C(=N)c2ccc(Cl)cc2)c2c1CCCCC2`, for which the TGI in the assay with A498 renal, with HCC-2998 colon, with SK-MEL-28 melanoma, in the assay on UO-31 renal, in the assay with RPMI-8226 leukemia and in the assay with HL-60(TB) leukemia was greater than 100 µM throughout. The molecule also displayed a TGI in the assay with HCT-116 colon greater than 100 µM.
For the molecule `CCCCCCCCCCCCCCC(O)C1CCC(C(O)CCC(O)CCCCCC(O)CC2=CC(C)OC2=O)O1` (stereo not drawn), the TGI in the assay with A498 renal stood at 20.5 µM; in the assay on HCC-2998 colon, 4.94 µM; in the assay on SK-MEL-28 melanoma, 10.1 µM; in the assay on UO-31 renal, 6.78 µM; with RPMI-8226 leukemia it was 2.75 µM; in the assay with HL-60(TB) leukemia, 1.56 µM. Moreover, the TGI is 11.1 µM in the assay with HCT-116 colon and 16.2 µM in the assay with EKVX NSCLC.
`N[C@H](C(=O)O)[C@@H](Cl)CC(=O)O`: the TGI with A498 renal, in the assay on HCC-2998 colon, with SK-MEL-28 melanoma, in the assay on UO-31 renal, with RPMI-8226 leukemia and in the assay on HL-60(TB) leukemia was greater than 100 µM each time. Moreover, the TGI in the assay on HCT-116 colon and in the assay on EKVX NSCLC was greater than 100 µM in each case.
With `COC(=O)C1=C(c2cc(OC)c(OC)c(OC)c2)O[C@H](c2ccc3c(c2)OCO3)[C@H]1COC(C)=O`, the TGI was 48.6 µM with A498 renal; greater than 100 µM in the assay with HCC-2998 colon; 80 µM in the assay with UO-31 renal; greater than 100 µM in the assay on RPMI-8226 leukemia; 40.3 µM with HL-60(TB) leukemia; greater than 100 µM in the assay on EKVX NSCLC.

Values taken from PubChem BioAssay (NCI).
